Test results reported in PubChem BioAssay AID248 (DTP/NCI, 2004).
“And” between values parts separate entries of the source, which are not always exact repeats. Equal values may be shown once. Inconclusive results and toxic doses are left out. Cut-off read from the data, not from the text of the source: active = T/C of 150% or more; inactive = T/C below 125%.

Tested on: L1210 leukemia ip in BDF1 mice, survival T/C
Experiment: NCI In Vivo Anticancer Drug Screen. Data for tumor model L1210 Leukemia (intraperitoneal) in B6D2F1 (BDF1) mice
Conditions: endpoint: mean survival time, higher = longer survival
Summary of the method: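 Read-out is survival time, reported as the treated-group measurement over the vehicle-control measurement.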

[1] = dose: 100.0 mg/kg/injection, schedule: Q01DX009 (ip), vehicle: saline
[2] = dose: 100.0 mg/kg/injection, schedule: Q04DX003 (ip), vehicle: saline
[3] = dose: 200.0 mg/kg/injection, schedule: Q01DX009 (ip), vehicle: saline
[4] = dose: 200.0 mg/kg/injection, schedule: Q04DX003 (ip), vehicle: saline
[5] = dose: 100.0 mg/kg/injection, schedule: Q01DX001 (ip), vehicle: other
[6] = dose: 200.0 mg/kg/injection, schedule: Q01DX001 (ip), vehicle: other
[7] = dose: 400.0 mg/kg/injection, schedule: Q01DX001 (ip), vehicle: other
[8] = dose: 100.0 mg/kg/injection, schedule: Q01DX001 (ip), vehicle: saline
[9] = dose: 200.0 mg/kg/injection, schedule: Q01DX001 (ip), vehicle: saline
[10] = dose: 400.0 mg/kg/injection, schedule: Q01DX001 (ip), vehicle: saline
[11] = dose: 100.0 mg/kg/injection, schedule: Q01DX009 (ip), vehicle: saline with Tween-80
[12] = dose: 100.0 mg/kg/injection, schedule: Q04DX002 (ip), vehicle: saline with Tween-80
[13] = dose: 200.0 mg/kg/injection, schedule: Q01DX009 (ip), vehicle: saline with Tween-80
[14] = dose: 200.0 mg/kg/injection, schedule: Q04DX002 (ip), vehicle: saline with Tween-80
[15] = dose: 400.0 mg/kg/injection, schedule: Q01DX009 (ip), vehicle: saline with Tween-80
[16] = dose: 400.0 mg/kg/injection, schedule: Q04DX002 (ip), vehicle: saline with Tween-80

Measured: T/C

CC(C)(CO)N=Cc1ccccc1O.CC(C)(CO)N=Cc1ccccc1O.[Co]
inactive: dose: 12.5 mg/kg/injection, schedule: Q01DX001 (ip), vehicle: saline 97 % of control | dose: 25.0 mg/kg/injection, schedule: Q01DX001 (ip), vehicle: saline 97 % of control | dose: 50.0 mg/kg/injection, schedule: Q01DX001 (ip), vehicle: saline 92 % of control

O=C1NCCN1
inactive: [1] 101 % of control | dose: 100.0 mg/kg/injection, schedule: Q04DX002 (ip), vehicle: saline 103 % of control | [2] 104 % of control | [3] 106 % of control | dose: 200.0 mg/kg/injection, schedule: Q04DX002 (ip), vehicle: saline 107 % of control | [4] 101 % of control | dose: 400.0 mg/kg/injection, schedule: Q01DX009 (ip), vehicle: saline 106 % of control | dose: 400.0 mg/kg/injection, schedule: Q04DX002 (ip), vehicle: saline 107 % of control | dose: 400.0 mg/kg/injection, schedule: Q04DX003 (ip), vehicle: saline 95 % of control

COc1ccc(N2C(=O)C3C4c5ccccc5C(C3C2=O)[n+]2ccccc24)cc1 (centres undefined)
inactive: [2] 97 % of control | [4] 103 % of control

Cc1ccc(S(=O)(=O)NCCN(C2CCCCC2)S(=O)(=O)c2ccc(C)cc2)cc1
inactive: dose: 15.0 mg/kg/injection, schedule: Q01DX001 (ip), vehicle: carboxymethylcellulose (CMC) 96 % of control | dose: 30.0 mg/kg/injection, schedule: Q01DX001 (ip), vehicle: carboxymethylcellulose (CMC) 96 % of control

COC1=NS(=O)(=O)CC(c2ccccc2)O1 (centres undefined)
inactive: dose: 75.0 mg/kg/injection, schedule: Q04DX003 (ip), vehicle: other 102 % of control | dose: 150.0 mg/kg/injection, schedule: Q04DX003 (ip), vehicle: other 86 % of control | dose: 300.0 mg/kg/injection, schedule: Q04DX003 (ip), vehicle: other 94 % of control

CCOC(=O)CCc1c(COC(C)=O)[nH]c(C(=O)OCC)c1C
inactive: dose: 50.0 mg/kg/injection, schedule: Q01DX001 (ip), vehicle: Klucel (hydroxypropylcellulose) (HPC) 100 % of control | dose: 100.0 mg/kg/injection, schedule: Q01DX001 (ip), vehicle: Klucel (hydroxypropylcellulose) (HPC) 92 % of control | dose: 200.0 mg/kg/injection, schedule: Q01DX001 (ip), vehicle: Klucel (hydroxypropylcellulose) (HPC) 90 % of control

O=c1[nH]c(=O)c2cc3ccccc3nc2[nH]1
inactive: dose: 50.0 mg/kg/injection, schedule: Q01DX001 (ip), vehicle: carboxymethylcellulose (CMC) 97 % of control | dose: 100.0 mg/kg/injection, schedule: Q01DX001 (ip), vehicle: carboxymethylcellulose (CMC) 101 % of control | dose: 200.0 mg/kg/injection, schedule: Q01DX001 (ip), vehicle: carboxymethylcellulose (CMC) 95 % of control | dose: 400.0 mg/kg/injection, schedule: Q01DX001 (ip), vehicle: carboxymethylcellulose (CMC) 97 % of control

Cc1cc(C)c2[nH]c(=O)cc(C)c2c1
inactive: [5] 97 % of control and 98 % of control | [6] 97 % of control and 95 % of control | [7] 108 % of control and 95 % of control

Cc1cn([C@@H]2C[C@H](CO)[C@@H](O)C2)c(=O)[nH]c1=O
inactive: [8] 105 % of control | [9] 110 % of control | [10] 107 % of control

CC#CC(O)(C(=O)OCC)C1CCCCC1 (centres undefined)
inactive: [8] 96 % of control | [9] 113 % of control | [10] 100 % of control

O=c1/c(=C\c2ccccc2)sc2n1CCN=2
inactive: [8] 89 % of control | [9] 92 % of control | [10] 101 % of control

CSc1ccc(NC(=S)NC(=O)c2ccc(Cl)cc2Cl)cc1
inactive: [11] 93 % of control and 89 % of control | [12] 90 % of control and 92 % of control | [13] 96 % of control and 88 % of control | [14] 93 % of control and 100 % of control | [15] 96 % of control and 100 % of control | [16] 107 % of control and 90 % of control

C#CCOC(=O)Nc1ccccc1
inactive: dose: 50.0 mg/kg/injection, schedule: Q01DX009 (ip), vehicle: Klucel (hydroxypropylcellulose) (HPC) 100 % of control | dose: 100.0 mg/kg/injection, schedule: Q01DX009 (ip), vehicle: Klucel (hydroxypropylcellulose) (HPC) 100 % of control | dose: 200.0 mg/kg/injection, schedule: Q01DX009 (ip), vehicle: Klucel (hydroxypropylcellulose) (HPC) 107 % of control

CCN(CC)CCC(=O)c1cccs1
inactive: [1] 87 % of control | [3] 89 % of control

COC(=O)c1ccccc1NC(=O)Nc1cc(Cl)ccc1C
inactive: dose: 100.0 mg/kg/injection, schedule: Q01DX001 (ip), vehicle: saline with Tween-80 87 % of control | [11] 91 % of control and 92 % of control | [12] 95 % of control and 88 % of control | dose: 100.0 mg/kg/injection, schedule: Q04DX003 (ip), vehicle: saline with Tween-80 101 % of control | dose: 200.0 mg/kg/injection, schedule: Q01DX001 (ip), vehicle: saline with Tween-80 90 % of control | [13] 93 % of control and 94 % of control | [14] 88 % of control and 91 % of control | dose: 200.0 mg/kg/injection, schedule: Q04DX003 (ip), vehicle: saline with Tween-80 92 % of control | dose: 400.0 mg/kg/injection, schedule: Q01DX001 (ip), vehicle: saline with Tween-80 88 % of control | [15] 94 % of control and 101 % of control | [16] 93 % of control and 91 % of control | dose: 400.0 mg/kg/injection, schedule: Q04DX003 (ip), vehicle: saline with Tween-80 90 % of control

CCc1noc(CC)c1CC1=C2CCC3(C)CCC(C)(C)CC3C2(C)CCC1=O (centres undefined)
inactive: [5] 96 % of control | [11] 93 % of control | [6] 94 % of control | [13] 91 % of control | [7] 97 % of control | [15] 90 % of control

Cc1ccc(S(=O)(=O)COS(=O)(=O)C(F)(F)F)cc1
inactive: dose: 100.0 mg/kg/injection, schedule: Q04DX003 (ip), vehicle: Klucel (hydroxypropylcellulose) (HPC) 93 % of control | dose: 200.0 mg/kg/injection, schedule: Q04DX003 (ip), vehicle: Klucel (hydroxypropylcellulose) (HPC) 93 % of control

COc1ccc2c(c1)CCC1C2CCC2(C)C(=O)C(SC3=NC=NC4=NC=NC43)CC12 (centres undefined)
inactive: dose: 100.0 mg/kg/injection, schedule: Q01DX001 (sc), vehicle: steriod suspending solution 97 % of control | dose: 200.0 mg/kg/injection, schedule: Q01DX001 (sc), vehicle: steriod suspending solution 96 % of control | dose: 400.0 mg/kg/injection, schedule: Q01DX001 (sc), vehicle: steriod suspending solution 111 % of control

CC1(C)CC(=NNC(N)=S)CC(C)(C)N1O
inactive: dose: 25.0 mg/kg/injection, schedule: Q04DX002 (ip), vehicle: saline 102 % of control | dose: 50.0 mg/kg/injection, schedule: Q04DX002 (ip), vehicle: saline with Tween-80 93 % of control | dose: 50.0 mg/kg/injection, schedule: Q04DX002 (ip), vehicle: saline 94 % of control | [12] 101 % of control

CCCCOP(=O)(Cc1ccc(Cl)cc1Cl)OCCCC
inactive: [12] 109 % of control | [14] 109 % of control | [16] 98 % of control
